Test results from patent US20060276464A1, “Diarylsulfone sulfonamides and use thereof” (Wyeth, priority 2005, published 2006).
Where two headings read alike, the source gives them in different places.

Target: T1, SFRP-1 (Homo sapiens, UniProt Q8N474)
T1 sequence (Q8N474 32-314): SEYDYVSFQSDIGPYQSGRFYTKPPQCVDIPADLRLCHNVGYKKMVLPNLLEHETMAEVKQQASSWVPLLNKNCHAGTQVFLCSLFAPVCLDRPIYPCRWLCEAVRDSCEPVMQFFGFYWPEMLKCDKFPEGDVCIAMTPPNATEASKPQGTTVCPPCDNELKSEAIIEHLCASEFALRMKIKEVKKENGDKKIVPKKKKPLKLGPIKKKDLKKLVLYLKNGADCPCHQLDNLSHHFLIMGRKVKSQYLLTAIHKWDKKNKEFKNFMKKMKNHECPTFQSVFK
Experiment: Cell-based assay for in vitro measurement of SFRP-1/SARP2 antagonist activity (U2OS cells co-transfected with 16x TCF-tk-Luciferase reporter, Wnt and hSFRP-1);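 further: U2OS cells co-transfected with a TCF-tk luciferase reporter, a Wnt vector, hSFRP-1 or empty vector and CMV-βgal, luciferase luminescence read in cell lysates alongside βgal activity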
Conditions: U2OS

[1] = read-out: Fold Induction with SFRP-1, Conc 15 μM, with SFRP-1, fold induction over SFRP-1 control, single dose
[2] = read-out: Fold Induction without SFRP-1, Conc 15 μM, without SFRP-1, single dose
[3] = read-out: Fold Induction with SFRP-1, Conc 15 μM, single dose, luciferase reporter, fold induction over SFRP-1 control, cells with SFRP-1
[4] = read-out: Fold Induction without SFRP-1, Conc 15 μM, single dose, luciferase reporter, cells without SFRP-1 (specificity control)
[5] = read-out: Fold Induction with SFRP-1, Conc 30 μM, with SFRP-1, fold induction over SFRP-1 control, single dose
[6] = read-out: Fold Induction without SFRP-1, Conc 30 μM, without SFRP-1, single dose

Compound	fold induction at 15 µM [1]	fold induction at 15 µM [2]	other results
CC(C)c1ccc(S(=O)(=O)c2ccc(F)cc2)cc1S(=O)(=O)NC[C@@H](C)c1ccccc1 [Example 444, 5-[(4-fluorophenyl)sulfonyl]-2-isopropyl-N-[(2S)-2-phenylpropyl]benzenesulfonamide]	1.4	1.1	–
Cc1ccc(S(=O)(=O)c2ccccc2-c2ccccc2)cc1S(=O)(=O)NCCc1ccccn1 [Example 432, 5-(biphenyl-2-ylsulfonyl)-2-methyl-N-(2-pyridin-2-ylethyl)benzenesulfonamide]	1.9	0.9	–
CC(C)c1ccc(S(=O)(=O)c2ccc(F)cc2)cc1S(=O)(=O)NC1CCN(C(=S)Nc2ccc3c(c2)C(=O)OC32c3ccc(O)cc3Oc3cc(O)ccc32)CC1 [Example 538, N-(3′,6′-dihydroxy-3-oxo-3H-spiro[2-benzofuran-1,9′-xanthen]-5-yl)-4-[({5-[(4-fluorophenyl)sulfonyl]-2-isopropylphenyl}sulfonyl)amino]piperidine-1-carbothioamide]	–	–	fold induction at 15 µM [3]: 2.4; fold induction at 15 µM [4]: 1.1
COc1ccc(S(=O)(=O)c2ccccc2)cc1S(=O)(=O)NCCc1ccccc1 [Example 150, 2-methoxy-N-(2-phenylethyl)-5-(phenylsulfonyl)benzenesulfonamide]	1.5	1.2	–
Cc1ccc(S(=O)(=O)c2cccc(Cl)c2)cc1S(=O)(=O)NCCCn1ccnc1 [Example 342, 5-[(3-chlorophenyl)sulfonyl]-N-[3-(1H-imidazol-1-yl)propyl]-2-methylbenzenesulfonamide]	3.3	1.1	–
CC(C)(C)OC(=O)NC1CCN(S(=O)(=O)c2cc(S(=O)(=O)c3ccccc3)ccc2Cl)C1 (centres unmarked) [Example 638, tert-butyl(1-{[2-chloro-5-(phenylsulfonyl)phenyl]sulfonyl}pyrrolidin-3-yl)carbamate]	–	–	fold induction at 15 µM [3]: 1.2; fold induction at 15 µM [4]: 1.1
O=C(O)CCNS(=O)(=O)c1cccc(S(=O)(=O)c2ccccc2)c1 [Example 202, N-{[3-(phenylsulfonyl)phenyl]sulfonyl)-beta-alanine]	–	–	fold induction at 30 µM [5]: 1.1; fold induction at 30 µM [6]: 1.2
Cc1ccc(S(=O)(=O)c2ccccc2)cc1S(=O)(=O)NCCc1ccncc1 [Example 208, 2-methyl-5-(phenylsulfonyl)-N-(2-pyridin-4-ylethyl)benzenesulfonamide]	2.6	0.9	–
O=C(NCCNS(=O)(=O)c1cc(S(=O)(=O)c2ccccc2)ccc1C(F)(F)F)c1ccc(Cl)cc1 [Example 778, 4-Chloro-N-[2-({[5-(phenylsulfonyl)-2-(trifluoromethyl)phenyl]sulfonyl}amino)ethyl]benzamide]	–	–	fold induction at 10 µM (read-out: Fold Induction with SFRP-1, U2OS cells, single dose 10 μM, luciferase reporter, fold induction over SFRP-1 control): 1.2
NC(=O)CCNS(=O)(=O)c1cccc(S(=O)(=O)c2ccccc2)c1 [Example 181, N^3-{[3-(phenylsulfonyl)phenyl]sulfonyl}-beta-alaninamide]	–	–	fold induction at 30 µM [5]: 0.6; fold induction at 30 µM [6]: 1
COc1ccc(CCNS(=O)(=O)c2cc(S(=O)(=O)c3ccc(C)cc3)ccc2C)cc1OC [Example 120, N-[2-(3,4-dimethoxyphenyl)ethyl]-2-methyl-5-[(4-methylphenyl)sulfonyl]benzenesulfonamide]	–	–	fold induction at 30 µM [5]: 1.2; fold induction at 30 µM [6]: 0.5
O=S(=O)(NC1CCOCC1)c1cc(S(=O)(=O)c2ccc(F)cc2)ccc1Cl [Example 622, 2-chloro-5-[(4-fluorophenyl)sulfonyl]-N-(tetrahydro-2H-pyran-4-yl)benzenesulfonamide]	–	–	fold induction at 15 µM [3]: 2.7; fold induction at 15 µM [4]: 1.1
O=S(=O)(NCCc1ccncc1)c1cccc(S(=O)(=O)c2ccccc2)c1 [Example 187, 3-(phenylsulfonyl)-N-(2-pyridin-4-ylethyl)benzenesulfonamide]	–	–	fold induction at 30 µM [5]: 1.9; fold induction at 30 µM [6]: 1
COc1ccccc1CCNS(=O)(=O)c1cc(S(=O)(=O)c2ccccc2)ccc1OC [Example 151, 2-methoxy-N-[2-(2-methoxyphenyl)ethyl]-5-(phenylsulfonyl)benzenesulfonamide]	1.4	1.1	–
CN1CCN(CCCNS(=O)(=O)c2cc(S(=O)(=O)c3ccccc3)ccc2Cl)CC1 [Example 642, 2-chloro-N-[3-(4-methylpiperazin-1-yl)propyl]-5-(phenylsulfonyl)benzenesulfonamide]	–	–	fold induction at 15 µM [3]: 2.2; fold induction at 15 µM [4]: 1.1
CCc1ccc(S(=O)(=O)c2ccc(F)cc2)cc1S(=O)(=O)NCC1CCOCC1 [Example 384, 2-ethyl-5-[(4-fluorophenyl)sulfonyl]-N-(tetrahydro-2H-pyran-4-ylmethyl)benzenesulfonamide]	2.6	0.8	–
Cc1ccc(S(=O)(=O)c2ccc(C)c(S(=O)(=O)NCCc3ccccc3)c2)cc1 [Example 116, 2-methyl-5-[(4-methylphenyl)sulfonyl]-N-(2-phenylethyl)benzenesulfonamide]	–	–	fold induction at 30 µM [5]: 0.9; fold induction at 30 µM [6]: 0.4
Cc1ccc(S(=O)(=O)c2ccccc2)cc1S(=O)(=O)NCC(O)c1ccccc1 (centres unmarked) [Example 386, N-(2-hydroxy-2-phenylethyl)-2-methyl-5-(phenylsulfonyl)benzenesulfonamide]	1.8	1	–
CC(C)c1ccc(S(=O)(=O)c2ccc(F)cc2)cc1S(=O)(=O)NC1CCC1 [Example 522, N-cyclobutyl-5-[(4-fluorophenyl)sulfonyl]-2-isopropylbenzenesulfonamide]	–	–	fold induction at 15 µM [3]: 1.4; fold induction at 15 µM [4]: 0.9
Cc1ccc(S(=O)(=O)c2ccccc2)cc1S(=O)(=O)NC1CCN(C(=O)Oc2ccc(F)cc2)CC1 [Example 500, 4-fluorophenyl 4-({[2-methyl-5-(phenylsulfonyl)phenyl]sulfonyl}amino)piperidine-1-carboxylate]	–	–	fold induction at 15 µM [3]: 1.6; fold induction at 15 µM [4]: 0.8
Cc1ccc(S(=O)(=O)c2ccc(F)cc2)cc1S(=O)(=O)NCCn1ccnc1 [Example 307, 5-[(4-fluorophenyl)sulfonyl]-N-[2-(1H-imidazol-1-yl)ethyl]-2-methylbenzenesulfonamide]	2.5	0.9	–
Cc1ccc(S(=O)(=O)c2ccc(F)cc2)cc1S(=O)(=O)NC[C@H](C)c1ccccc1 [Example 251, 5-[(4-fluorophenyl)sulfonyl]-2-methyl-N-[(2R)-2-phenylpropyl]benzenesulfonamide]	–	–	fold induction at 20 µM (read-out: Fold Induction with SFRP-1, Conc 20 μM, with SFRP-1, fold induction over SFRP-1 control, single dose): 3; fold induction at 20 µM (read-out: Fold Induction without SFRP-1, Conc 20 μM, without SFRP-1, single dose): 0.8
CC(C)(C)OC(=O)NC1CCN(S(=O)(=O)c2cc(S(=O)(=O)c3ccccc3)ccc2Cl)CC1 [Example 639, tert-butyl(1-{[2-chloro-5-(phenylsulfonyl)phenyl]sulfonyl}piperidin-4-yl)carbamate]	–	–	fold induction at 15 µM [3]: 0.9; fold induction at 15 µM [4]: 1
CCN(CC)CCNS(=O)(=O)c1cccc(S(=O)(=O)c2ccccc2)c1 [Example 193, N-[2-(diethylamino)ethyl]-3-(phenylsulfonyl)benzenesulfonamide]	–	–	fold induction at 30 µM [5]: 1.2; fold induction at 30 µM [6]: 1.3
C#CCN(CCc1ccc(OC)c(OC)c1)S(=O)(=O)c1cc(S(=O)(=O)c2ccccc2)ccc1C [Example 274, N-[2-(3,4-dimethoxyphenyl)ethyl]-2-methyl-5-(phenylsulfonyl)-N-prop-2-ynylbenzenesulfonamide]	2	1	–

Further lines, with some results ahead:

fold induction at 15 µM [1]	fold induction at 15 µM [2]	Compound	other results
2.4	1.6	Cc1ccc(S(=O)(=O)c2ccccc2)cc1S(=O)(=O)N1CCN(CCN2CCCC2)CC1 [Example 282, 1-{[2-methyl-5-(phenylsulfonyl)phenyl]sulfonyl}-4-(2-pyrrolidin-1-ylethyl)piperazine]	–
2	0.9	Cc1ccc(S(=O)(=O)c2ccccc2)cc1S(=O)(=O)NCCCN1CCCC1=O [Example 212, 2-methyl-N-[3-(2-oxopyrrolidin-1-yl)propyl]-5-(phenylsulfonyl)benzenesulfonamide]	–
1.8	1.2	Cc1ccc(S(=O)(=O)c2ccccc2)cc1S(=O)(=O)NC1CCCCC1 [Example 400, N-cyclohexyl-2-methyl-5-(phenylsulfonyl)benzenesulfonamide]	–
1.6	1.1	Cc1ccc(S(=O)(=O)c2ccccc2)cc1S(=O)(=O)NCC(F)(F)F [Example 401, 2-methyl-5-(phenylsulfonyl)-N-(2,2,2-trifluoroethyl)benzenesulfonamide]	–
3.6	1.1	CCc1ccc(S(=O)(=O)c2ccccc2)cc1S(=O)(=O)NC[C@H](C)c1ccccc1 [Example 268, 2-ethyl-N-[(2R)-2-phenylpropyl]-5-(phenylsulfonyl)benzenesulfonamide]	–
